Reference: patent US20220000848A1, “APPLICATION OF CHIDAMIDE” (SHENZHEN CHIPSCREEN BIOSCIENCES CO., LTD., priority 2018, published 2022)

Key:
[1] = tested on: relapsed or refractory B cell lymphoma; assay: Phase II clinical trial of Chidamide monotherapy in relapsed or refractory B cell lymphoma; assay type: in vivo, human; details: patients, oral 30 mg 2 times a week; 8 cases evaluated of 10 enrolled
Method: (§1) Test drugs: Chidamide tablets: off-white tablets, 5 mg/tablet. Produced by Shenzhen Chipscreen Biosciences Co., Ltd.
(§2) Dosage regimen: 2 times a week, 30 mg each time, the interval of two administrations should not be less than 3 days (for example, on Monday and Thursday, Tuesday and Friday, Wednesday and Saturday, etc.). The administration was performed 30 minutes after breakfast, every 3 weeks was a treatment cycle. During the entire study, all subjects should unceasingly receive the treatment under study until the appearance of any one of the following conditions: progression of disease, intolerable adverse reaction, death, withdrawal from treatment, withdrawal of the informed consent or loss to follow-up.
Number of cases: Simon's optimal two-stage design was adopted, 72 patients were enrolled, and pathological subtypes included: follicular lymphoma (FL) grade 1, grade 2 or grade 3, marginal zone B-cell lymphoma (MALT), lymphoplasmacytic lymphoma (LPL), small lymphocyte B cell lymphoma (SLL), diffuse large B cell lymphoma (DLBCL).
The patients were orally administrated with Chidamide according to the aforementioned dosage regimen, and the safety- and efficacy evaluation were performed as required at the specified time.
Efficacy evaluation time: efficacy evaluation was performed once every 6 weeks. […]

[2] = tested on: relapsed or refractory follicular lymphoma (FL) accompanied with specific epigenetic regulatory gene mutation; assay: Multicenter, single-arm, open clinical trial of Chidamide tablet in relapsed or refractory follicular lymphoma with CREBBP and/or EP300 mutation (pre-test); assay type: in vivo, human; details: 11 patients accompanied with epigenetic mutation B-NHL, oral 30 mg 2 times a week
Method: as §1
as §2, with “follow-up. […]” for “follow-up.”
4. Having CREBBP and/or EP300 specific genetic mutation that was confirmed by second-generation sequencing;
Patients were orally administrated with Chidamide according to the regimen, and the following safety- and efficacy follow-ups were performed at the specified times:
Follow-up interval: Efficacy assessment was carried out once every 6 weeks; and efficacy follow-up was performed at the end of treatment.
Efficacy evaluation means: Evaluation of lymph nodes and organ lesions, skin lesions was performed by imaging methods (CT or PET/CT), clinical examination, bone marrow puncture and biopsy. The imaging methods used for patients must be the same at all follow-up points. […]

Nc1cc(F)ccc1NC(=O)c1ccc(CNC(=O)/C=C/c2cccnc2)cc1 [Chidamide]
ORR [1]: 37.5% | benefit rate [1]: 62.5% | CR [2]: 36.3% | ORR [2]: 72.7%
